Earlier results, collected in patent US20210322405A1, “COMPOSITIONS AND METHODS FOR TREATING CANCER” (Washington University, priority 2020, published 2021).

Tests used:
[1] = test system: ALK-inhibitor resistant ALK-driven patient-derived cell lines; settings: SHP099 in combination with the ALK inhibitor ceritinib; Dardaei et al., 2018
G6PD = settings: dose-dependent manner; Bernstock et al., 2017
GBM patients = settings: clinical trial; Butowski et al., 2016

For CC1(N)CCN(c2cnc(-c3cccc(Cl)c3Cl)c(N)n2)CC1 [SHP099], the “Shp2-activation-mediated resistance to ALK inhibitor” value [1] is given as “overcome”.

For CC[C@@]1(O)C(=O)OCc2c1cc1n(c2=O)Cc2cc3c(CN(C)C)c(O)ccc3nc2-1 [topotecan], the “activity of G6PD” value (G6PD) is listed as “decreases”.

In the case of FC(F)(F)c1ccc(CNc2ccc(Cc3c[nH]c4ncc(Cl)cc34)cn2)cn1 [PLX3397], the “clinical benefit for GBM patients” value (GBM patients) is listed as “did not show clear benefit”.
